Read-outs that look alike come from different tables or passages of the source.
What was measured:
SETD2(1434-1711) = target: T1, SETD2(1434-1711) (Homo sapiens, UniProt Q9BYW2); assay: SETD2 (1434-1711) assay; type: biochemical; conditions: read-out: SETD2 (1434-1711)
T1 construct: SETD2 (1434-1711) Assay; catalogue N/A
T1 sequence (Q9BYW2 1434-1711): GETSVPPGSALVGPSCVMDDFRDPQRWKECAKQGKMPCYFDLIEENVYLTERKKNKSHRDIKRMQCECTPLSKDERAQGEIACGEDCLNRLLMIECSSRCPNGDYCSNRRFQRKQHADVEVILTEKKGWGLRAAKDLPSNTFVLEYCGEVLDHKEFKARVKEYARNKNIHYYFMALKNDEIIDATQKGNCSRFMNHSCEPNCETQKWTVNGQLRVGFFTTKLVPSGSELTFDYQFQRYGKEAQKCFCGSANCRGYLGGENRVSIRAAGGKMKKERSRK

H3K36me3 in A549 cells = assay: In-Cell Western (ICW) assay of SETD2 inhibitors (A549 assay); type: cell-based, human; conditions: A549 cells, read-out: SETD2 A549
Method in brief: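 H3K36me3 In-Cell Western: cells exposed to compound for 3 days at 4,000 cells/well, 37° C. DRAQ5 (1:1000) marked cell number, with 700/800-channel Licor read-out.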

| Structure (SMILES) | IC50 (SETD2(1434-1711)) | IC50 (H3K36me3 in A549 cells) | IC50 (H3K36me3 in A549 cells; Homo sapiens) |
| --- | --- | --- | --- |
| CCN(CC)CCS(=O)(=O)N1CCN(c2cccc(NC(=O)c3cc4cccc(C)c4[nH]3)c2)CC1 [compound 405] | 400 nM | 2800 nM |  |
| Cc1ccc(F)c2cc(C(=O)Nc3cccc(N4CCN(C5CCOCC5)CC4)c3)[nH]c12 [compound 207] | 100 nM | 400 nM |  |
| Cc1cccnc1C(Cc1cn(CC2CC2)cn1)NC(=O)c1cc2c(F)ccc(C)c2[nH]1 (stereo not shown) [compound 356] | 600 nM |  | > 2000 nM |
| Cc1ccc(F)c2cc(C(=O)Nc3cccc4c3cnn4[C@H]3CC[C@H](N(C)C)CC3)[nH]c12 [Cpd. No. 213, N-(1-((1r,4r)-4-(dimethylamino)cyclohexyl)-1H-indazol-4-yl)-4-fluoro-7-methyl-1H-indole-2-carboxamide] | 7 nM |  | 500 nM |
| Cc1ccc(F)c2cc(C(=O)Nc3cc(F)cc(C4CCN(C5CCN(C)C5=O)C4)c3)[nH]c12 (stereo not shown) [compound 230] | 40 nM | 500 nM |  |
| Cc1ccc(F)c2cc(C(=O)Nc3cccc(N4CCN(C(=O)c5cccnc5)CC4)c3)[nH]c12 [compound 49] | 30 nM | 100 nM |  |
| CC(=O)N1CCC2CN(c3cc(F)cc(NC(=O)c4cc5c(F)ccc(C)c5[nH]4)c3)CC21 (stereo not shown) [compound 14] | 7 nM | 50 nM |  |
| CNC(=O)C(NC(=O)c1cc2c(F)ccc(C)c2[nH]1)c1ccccn1 (stereo not shown) [compound 585] | 34000 nM | > 25000 nM |  |
| C=Cc1ccc(C)c2[nH]c(C(=O)NC(CCC(=O)N3CCOCC3)c3ncccc3C)cc12 (stereo not shown) [compound 431] | 2100 nM | 4400 nM |  |
| Cc1ccc(F)c2cc(C(=O)NC3CCCC(N4CCn5ccnc5C4)C3)[nH]c12 (stereo not shown) [compound 852] | 100 nM | 1000 nM |  |
| Cc1ccc(F)c2cc(C(=O)NC3CCCC(N4CCn5ncnc5C4)C3)[nH]c12 (stereo not shown) [compound 868] | 100 nM | 200 nM |  |
| COCCN1CCN(c2cccc(NC(=O)c3cc4c(F)ccc(C)c4[nH]3)c2)CC1 [compound 223] | 90 nM | 500 nM |  |
| Cc1ccc(F)c2cc(C(=O)Nc3cccc(-c4ccc5cncn5c4)c3)[nH]c12 [compound 278] | 70 nM | 900 nM |  |
| CC(=O)N1[C@H](C)CN(c2cccc(NC(=O)c3cc4c(F)ccc(C)c4[nH]3)c2)C[C@H]1C [compound 214] | 100 nM | 500 nM |  |
| Cc1cccc2cc(C(=O)NC3CCC(NS(=O)(=O)CCCN)CC3)[nH]c12 (stereo not shown) [compound 581] | 28200 nM | > 25000 nM |  |
| CNC1CCN(c2cccc(NC(=O)c3cc4c(F)ccc(C)c4[nH]3)c2)C1 (stereo not shown) [compound 128] | 10 nM |  | 300 nM |
| Cc1ccc(F)c2cc(C(=O)Nc3cc(F)cc(N4CCN(C(=O)N(C)C)CC4)c3)[nH]c12 [compound 25] | 10 nM | 70 nM |  |
| CC(=O)N1CCC2(CCN(c3cc(F)cc(NC(=O)c4cc5c(F)ccc(C)c5[nH]4)c3)CC2)C1 [compound 30] | 8 nM | 70 nM |  |
| Cc1ccc(F)c2cc(C(=O)Nc3cccc(N4CCC5(CC4)CN(CC(F)(F)F)C5)c3)[nH]c12 [compound 110] | 100 nM | 200 nM |  |
| CC(=O)N1CCCN(c2cccc(NC(=O)c3cc4c(F)ccc(C)c4[nH]3)c2)CC1 [compound 248] | 100 nM | 600 nM |  |

Further lines, results first:

| IC50 (SETD2(1434-1711)) | IC50 (H3K36me3 in A549 cells) | IC50 (H3K36me3 in A549 cells; Homo sapiens) | Structure (SMILES) |
| --- | --- | --- | --- |
| 30 nM |  | 200 nM | CN/C(=C\[N+](=O)[O-])N1CCN([C@H]2CCC[C@@H](NC(=O)c3cc4c(F)ccc(C)c4[nH]3)C2)CC1 [compound 1115] |
| 100 nM | 800 nM |  | Cc1ccc(F)c2cc(C(=O)NC3CCCC(N4CCn5c(nnc5C(F)(F)F)C4)C3)[nH]c12 (stereo not shown) [compound 989] |
| 1100 nM |  | > 2000 nM | CC(=O)N(CCO)C1CCN([C@@H]2CCC[C@@H](NC(=O)c3cc4c(F)ccc(C)c4[nH]3)C2)C1 (stereo partly shown) [compound 873] |
| 20 nM | 200 nM |  | Cc1ccc(F)c2cc(C(=O)NC3CCCC(N4CCC5(CCC(=O)N5CC(F)(F)F)CC4)C3)[nH]c12 (stereo not shown) [compound 965] |
| 200 nM |  | 1800 nM | Cc1ccc(F)c2cc(C(=O)N[C@H]3CCC[C@@H](C4=NNC(=O)CN4)C3)[nH]c12 [compound 1188] |
| 8800 nM |  | > 2000 nM | Cc1ccc(F)c2cc(C(=O)N[C@@H]3CCC[C@@H](N4CCN(C5CCOC5)CC4)C3)[nH]c12 (stereo partly shown) [compound 925] |
| 4 nM |  | 600 nM | Cc1ccc(F)c2cc(C(=O)N[C@@H]3CCC[C@H](N4CCC(N(C)C(=O)CN(C)C)C4)C3)[nH]c12 (stereo partly shown) [compound 908] |
| 6600 nM | > 2000 nM |  | Cc1ccc(F)c2cc(C(=O)N[C@@H]3CCC[C@@H](N4CCn5ncnc5C4)C3)[nH]c12 [compound 869] |
| 500 nM | 1700 nM |  | Cc1ccc(F)c2cc(C(=O)NC3CCCC(N4CCN5C(=O)CCCC5C4)C3)[nH]c12 (stereo not shown) [compound 1080] |

Reference: patent publication US12116358B2, “Substituted indoles and methods of use thereof” (EPIZYME, INC., priority 2018, dated 2024)
